Results from ChEMBL document CHEMBL5653615 (J Biol Chem, 2013).

Tests used:
[1] = biological target: T1, Inhibitor of nuclear factor kappa-B kinase subunit alpha (Homo sapiens) (UniProt O15111); settings: dose 1.82 nM
T1 sequence (whole entry): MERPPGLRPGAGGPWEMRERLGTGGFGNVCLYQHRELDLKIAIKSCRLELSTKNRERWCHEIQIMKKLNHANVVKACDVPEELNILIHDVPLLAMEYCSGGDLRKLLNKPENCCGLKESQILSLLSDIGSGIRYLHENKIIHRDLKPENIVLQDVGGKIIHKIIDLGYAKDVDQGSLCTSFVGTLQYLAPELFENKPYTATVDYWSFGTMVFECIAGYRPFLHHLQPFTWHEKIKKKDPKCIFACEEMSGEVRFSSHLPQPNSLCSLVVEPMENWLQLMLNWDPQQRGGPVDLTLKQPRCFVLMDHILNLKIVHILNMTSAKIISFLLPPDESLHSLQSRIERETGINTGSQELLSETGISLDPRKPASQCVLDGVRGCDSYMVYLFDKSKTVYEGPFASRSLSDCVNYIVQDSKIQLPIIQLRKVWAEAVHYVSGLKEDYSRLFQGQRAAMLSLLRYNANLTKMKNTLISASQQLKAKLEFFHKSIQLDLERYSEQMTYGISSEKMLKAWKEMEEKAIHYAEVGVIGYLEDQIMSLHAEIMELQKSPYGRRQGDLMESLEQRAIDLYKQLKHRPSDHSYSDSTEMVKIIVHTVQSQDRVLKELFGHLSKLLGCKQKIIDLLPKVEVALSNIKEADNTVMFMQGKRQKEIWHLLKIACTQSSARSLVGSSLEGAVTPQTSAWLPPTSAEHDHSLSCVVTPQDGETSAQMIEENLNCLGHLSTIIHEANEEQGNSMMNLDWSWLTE
Description: Inhibition of human IKKa at 1.82 nM by HotSpot assay relative to control

[2] = biological target: Serine/threonine-protein kinase Chk2 (Homo sapiens) (UniProt O96017); experiment: Inhibition of human CHK2 at 1.82 nM by HotSpot assay relative to control
Chain of Serine/threonine-protein kinase Chk2 (Homo sapiens) (O96017 whole entry): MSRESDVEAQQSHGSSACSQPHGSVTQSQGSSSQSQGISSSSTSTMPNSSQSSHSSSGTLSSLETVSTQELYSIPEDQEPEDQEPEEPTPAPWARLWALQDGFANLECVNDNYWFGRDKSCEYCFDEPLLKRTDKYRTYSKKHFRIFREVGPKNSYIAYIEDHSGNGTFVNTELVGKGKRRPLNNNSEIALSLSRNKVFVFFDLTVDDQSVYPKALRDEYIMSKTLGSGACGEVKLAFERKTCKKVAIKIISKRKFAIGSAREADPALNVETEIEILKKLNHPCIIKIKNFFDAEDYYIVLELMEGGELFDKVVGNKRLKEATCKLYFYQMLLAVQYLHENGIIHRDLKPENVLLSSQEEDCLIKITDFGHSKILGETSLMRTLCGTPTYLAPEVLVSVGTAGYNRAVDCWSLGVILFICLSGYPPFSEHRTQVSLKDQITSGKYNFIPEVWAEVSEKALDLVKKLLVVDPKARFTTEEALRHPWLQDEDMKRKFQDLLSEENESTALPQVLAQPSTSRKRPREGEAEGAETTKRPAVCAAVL

[3] = biological target: Tyrosine-protein kinase ABL1 (Homo sapiens) (UniProt P00519); experiment: Inhibition of human ABL1 at 1.82 nM by HotSpot assay relative to control
Chain of Tyrosine-protein kinase ABL1 (Homo sapiens) (P00519 whole entry, the tested form may be a part): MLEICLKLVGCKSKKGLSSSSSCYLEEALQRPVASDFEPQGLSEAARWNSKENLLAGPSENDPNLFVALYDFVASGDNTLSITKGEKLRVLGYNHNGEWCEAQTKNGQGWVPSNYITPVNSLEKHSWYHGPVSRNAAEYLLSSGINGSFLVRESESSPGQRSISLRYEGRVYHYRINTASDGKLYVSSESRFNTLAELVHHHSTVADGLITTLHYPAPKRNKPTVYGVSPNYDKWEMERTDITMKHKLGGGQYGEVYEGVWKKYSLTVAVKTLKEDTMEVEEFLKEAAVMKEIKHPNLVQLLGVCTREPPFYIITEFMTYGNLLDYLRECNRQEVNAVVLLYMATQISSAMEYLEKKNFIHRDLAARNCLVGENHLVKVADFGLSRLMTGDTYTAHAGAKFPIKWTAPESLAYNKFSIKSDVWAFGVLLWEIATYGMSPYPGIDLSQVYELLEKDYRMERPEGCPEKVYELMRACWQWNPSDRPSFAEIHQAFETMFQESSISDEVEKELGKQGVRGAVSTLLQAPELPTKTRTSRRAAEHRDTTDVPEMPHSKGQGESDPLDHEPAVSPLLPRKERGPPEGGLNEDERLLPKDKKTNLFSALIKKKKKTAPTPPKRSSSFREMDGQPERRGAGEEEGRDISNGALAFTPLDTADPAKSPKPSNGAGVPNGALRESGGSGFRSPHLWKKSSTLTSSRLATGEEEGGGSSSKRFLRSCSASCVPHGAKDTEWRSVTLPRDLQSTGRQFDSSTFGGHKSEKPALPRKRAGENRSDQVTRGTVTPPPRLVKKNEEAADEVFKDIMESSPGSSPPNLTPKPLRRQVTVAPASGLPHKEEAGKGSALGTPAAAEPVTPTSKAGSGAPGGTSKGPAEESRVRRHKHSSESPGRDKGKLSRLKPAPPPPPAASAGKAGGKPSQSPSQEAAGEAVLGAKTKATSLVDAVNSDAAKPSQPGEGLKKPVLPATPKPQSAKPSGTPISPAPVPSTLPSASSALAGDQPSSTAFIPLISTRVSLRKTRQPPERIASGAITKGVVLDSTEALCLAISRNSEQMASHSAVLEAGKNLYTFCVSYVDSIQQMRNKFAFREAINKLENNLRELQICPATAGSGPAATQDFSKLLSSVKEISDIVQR

[4] = biological target: LIM domain kinase 1 (Homo sapiens) (UniProt P53667); experiment: Inhibition of human LIMK1 at 1.82 nM by HotSpot assay relative to control
Chain of LIM domain kinase 1 (Homo sapiens) (P53667 whole entry, looked up, the tested form may be a part): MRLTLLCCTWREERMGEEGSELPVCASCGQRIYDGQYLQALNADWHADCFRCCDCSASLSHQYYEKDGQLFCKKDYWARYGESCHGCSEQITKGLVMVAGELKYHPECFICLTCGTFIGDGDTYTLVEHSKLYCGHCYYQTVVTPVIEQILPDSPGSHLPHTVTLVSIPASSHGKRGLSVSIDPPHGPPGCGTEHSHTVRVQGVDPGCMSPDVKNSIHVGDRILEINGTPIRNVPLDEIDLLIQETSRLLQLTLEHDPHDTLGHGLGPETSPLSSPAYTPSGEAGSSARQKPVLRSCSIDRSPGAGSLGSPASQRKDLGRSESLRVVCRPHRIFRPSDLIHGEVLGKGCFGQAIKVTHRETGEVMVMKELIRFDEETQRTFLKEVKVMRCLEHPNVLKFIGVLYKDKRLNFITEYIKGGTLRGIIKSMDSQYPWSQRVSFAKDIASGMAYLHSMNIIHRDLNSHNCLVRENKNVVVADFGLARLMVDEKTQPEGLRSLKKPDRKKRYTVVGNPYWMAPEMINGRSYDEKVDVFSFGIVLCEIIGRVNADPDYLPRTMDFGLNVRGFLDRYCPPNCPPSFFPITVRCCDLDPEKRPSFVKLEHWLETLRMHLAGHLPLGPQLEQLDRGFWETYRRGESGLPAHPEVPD

[5] = biological target: Protein kinase C theta type (Homo sapiens) (UniProt Q04759); experiment: Inhibition of human PKCtheta at 18.6 nM by HotSpot assay relative to control
Chain of Protein kinase C theta type (Homo sapiens) (Q04759 whole entry, looked up): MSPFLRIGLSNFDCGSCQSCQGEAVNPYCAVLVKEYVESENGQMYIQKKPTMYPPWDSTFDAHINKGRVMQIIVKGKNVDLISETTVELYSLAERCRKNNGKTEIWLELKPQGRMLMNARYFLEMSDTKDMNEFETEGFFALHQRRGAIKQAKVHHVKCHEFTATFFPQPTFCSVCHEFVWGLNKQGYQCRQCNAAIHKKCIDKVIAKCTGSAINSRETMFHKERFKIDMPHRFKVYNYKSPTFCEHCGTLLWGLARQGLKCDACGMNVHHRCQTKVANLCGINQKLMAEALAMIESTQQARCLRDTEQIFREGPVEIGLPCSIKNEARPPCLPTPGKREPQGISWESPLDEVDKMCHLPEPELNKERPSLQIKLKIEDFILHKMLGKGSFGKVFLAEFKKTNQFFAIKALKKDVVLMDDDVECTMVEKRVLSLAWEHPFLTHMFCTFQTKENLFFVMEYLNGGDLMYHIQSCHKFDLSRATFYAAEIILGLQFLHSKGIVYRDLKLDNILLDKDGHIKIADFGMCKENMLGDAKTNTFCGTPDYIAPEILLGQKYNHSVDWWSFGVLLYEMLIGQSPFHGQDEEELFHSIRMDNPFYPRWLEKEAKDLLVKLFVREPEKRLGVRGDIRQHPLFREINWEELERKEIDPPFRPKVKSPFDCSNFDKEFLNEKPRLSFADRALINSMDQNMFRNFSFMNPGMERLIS

[6] = biological target: Cyclin-dependent kinase 7/ cyclin H (Homo sapiens) (UniProt P51946+P50613); experiment: Inhibition of human CDK7/cyclin H at 18.6 nM by HotSpot assay relative to control; format: protein-complex assay
[7] = biological target: T2, Serine/threonine-protein kinase A-Raf (Homo sapiens) (UniProt P10398); experiment: Inhibition of human ARAF at 18.6 nM by HotSpot assay relative to control
T2 sequence (whole entry): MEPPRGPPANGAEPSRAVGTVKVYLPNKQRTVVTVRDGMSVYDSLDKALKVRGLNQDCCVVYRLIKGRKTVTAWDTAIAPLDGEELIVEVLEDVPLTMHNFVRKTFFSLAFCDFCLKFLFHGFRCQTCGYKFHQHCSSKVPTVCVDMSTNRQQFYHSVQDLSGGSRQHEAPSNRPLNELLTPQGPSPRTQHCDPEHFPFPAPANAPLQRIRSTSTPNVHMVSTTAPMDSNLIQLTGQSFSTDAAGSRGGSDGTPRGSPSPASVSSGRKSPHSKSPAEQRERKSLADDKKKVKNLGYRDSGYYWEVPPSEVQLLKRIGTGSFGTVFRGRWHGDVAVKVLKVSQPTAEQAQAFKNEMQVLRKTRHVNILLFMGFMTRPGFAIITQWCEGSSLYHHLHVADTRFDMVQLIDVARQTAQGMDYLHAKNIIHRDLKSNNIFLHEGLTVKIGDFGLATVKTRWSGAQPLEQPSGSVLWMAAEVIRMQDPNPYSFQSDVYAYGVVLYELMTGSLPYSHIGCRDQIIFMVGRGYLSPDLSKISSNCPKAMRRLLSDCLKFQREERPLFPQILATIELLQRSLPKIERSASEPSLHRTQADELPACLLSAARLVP

[8] = biological target: T3, Beta-adrenergic receptor kinase 1 (Homo sapiens) (UniProt P25098); experiment: Inhibition of human GRK2 at 18.6 nM by HotSpot assay relative to control
T3 sequence (whole entry): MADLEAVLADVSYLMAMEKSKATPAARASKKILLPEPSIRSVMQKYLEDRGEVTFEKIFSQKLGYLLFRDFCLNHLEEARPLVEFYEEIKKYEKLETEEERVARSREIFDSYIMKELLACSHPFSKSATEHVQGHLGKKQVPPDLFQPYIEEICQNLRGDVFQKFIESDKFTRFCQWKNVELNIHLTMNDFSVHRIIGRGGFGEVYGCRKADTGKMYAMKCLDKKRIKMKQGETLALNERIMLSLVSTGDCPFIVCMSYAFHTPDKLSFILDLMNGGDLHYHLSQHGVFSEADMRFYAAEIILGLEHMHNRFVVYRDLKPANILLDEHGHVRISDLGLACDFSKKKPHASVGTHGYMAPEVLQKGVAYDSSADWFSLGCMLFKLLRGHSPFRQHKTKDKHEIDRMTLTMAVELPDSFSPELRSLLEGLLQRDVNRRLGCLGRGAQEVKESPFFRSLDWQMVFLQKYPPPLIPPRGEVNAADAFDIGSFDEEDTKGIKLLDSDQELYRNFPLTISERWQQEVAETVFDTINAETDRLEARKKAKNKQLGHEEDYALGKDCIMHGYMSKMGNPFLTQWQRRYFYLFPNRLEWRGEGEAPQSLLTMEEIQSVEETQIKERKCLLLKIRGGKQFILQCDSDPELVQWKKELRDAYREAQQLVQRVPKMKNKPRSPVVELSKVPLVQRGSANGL

[9] = biological target: Tyrosine-protein kinase JAK1 (Homo sapiens) (UniProt P23458); experiment: Inhibition of human JAK1 at 18.6 nM by HotSpot assay relative to control
Chain of Tyrosine-protein kinase JAK1 (Homo sapiens) (P23458 whole entry): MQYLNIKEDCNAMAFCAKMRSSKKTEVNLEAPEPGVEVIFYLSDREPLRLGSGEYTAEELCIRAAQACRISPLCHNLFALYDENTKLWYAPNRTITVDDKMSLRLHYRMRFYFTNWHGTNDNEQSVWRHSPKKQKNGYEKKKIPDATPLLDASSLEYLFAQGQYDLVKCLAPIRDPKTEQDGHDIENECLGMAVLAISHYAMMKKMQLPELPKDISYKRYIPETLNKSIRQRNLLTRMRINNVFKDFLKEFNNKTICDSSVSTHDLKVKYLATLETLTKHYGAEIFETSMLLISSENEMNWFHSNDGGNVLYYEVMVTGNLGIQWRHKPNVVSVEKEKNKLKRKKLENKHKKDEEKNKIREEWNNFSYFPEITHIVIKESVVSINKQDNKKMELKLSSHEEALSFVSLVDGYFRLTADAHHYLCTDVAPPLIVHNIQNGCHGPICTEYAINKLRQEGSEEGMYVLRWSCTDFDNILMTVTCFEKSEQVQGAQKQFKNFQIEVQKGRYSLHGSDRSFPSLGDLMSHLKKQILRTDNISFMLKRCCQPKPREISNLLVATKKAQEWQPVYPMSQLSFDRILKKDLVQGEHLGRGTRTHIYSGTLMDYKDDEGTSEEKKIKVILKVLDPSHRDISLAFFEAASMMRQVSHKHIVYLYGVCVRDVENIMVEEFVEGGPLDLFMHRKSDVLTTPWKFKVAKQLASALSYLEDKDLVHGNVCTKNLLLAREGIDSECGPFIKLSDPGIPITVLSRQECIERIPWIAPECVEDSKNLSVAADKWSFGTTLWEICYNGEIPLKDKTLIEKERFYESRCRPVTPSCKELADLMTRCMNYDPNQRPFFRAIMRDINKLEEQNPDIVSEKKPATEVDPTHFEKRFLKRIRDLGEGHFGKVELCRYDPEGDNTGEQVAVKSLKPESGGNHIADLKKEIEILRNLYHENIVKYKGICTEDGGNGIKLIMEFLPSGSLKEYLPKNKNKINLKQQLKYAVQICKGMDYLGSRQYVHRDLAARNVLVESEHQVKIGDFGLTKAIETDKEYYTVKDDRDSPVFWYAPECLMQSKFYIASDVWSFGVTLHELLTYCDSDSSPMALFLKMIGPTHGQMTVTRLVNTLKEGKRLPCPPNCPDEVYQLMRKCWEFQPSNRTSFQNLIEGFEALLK

[10] = biological target: T4, Serine/threonine-protein kinase STK11 (Homo sapiens) (UniProt Q15831); experiment: Inhibition of human LKB1 at 18.6 nM by HotSpot assay relative to control
T4 sequence (whole entry): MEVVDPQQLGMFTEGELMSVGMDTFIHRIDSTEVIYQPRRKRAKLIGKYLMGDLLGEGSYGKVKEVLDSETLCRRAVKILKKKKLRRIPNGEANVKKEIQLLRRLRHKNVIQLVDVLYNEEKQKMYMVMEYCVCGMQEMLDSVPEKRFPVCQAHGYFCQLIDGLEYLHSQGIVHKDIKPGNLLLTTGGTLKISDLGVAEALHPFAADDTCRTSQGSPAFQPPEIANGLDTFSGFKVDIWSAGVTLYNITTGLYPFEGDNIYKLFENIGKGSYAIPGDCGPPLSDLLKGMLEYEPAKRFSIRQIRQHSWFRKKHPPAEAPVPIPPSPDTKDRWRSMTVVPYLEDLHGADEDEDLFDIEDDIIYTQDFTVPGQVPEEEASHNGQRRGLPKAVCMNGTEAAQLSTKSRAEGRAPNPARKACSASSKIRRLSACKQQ

Q: What does the source list for `C[C@@]1(C(=O)Nc2ccc(F)nc2)CCCN1c1nc(Nc2cc(C3CC3)n[nH]2)c2cccn2n1`?
A: inhibition [1]: 3.74%; inhibition [2]: 0.29%; inhibition [3]: 3.21%; inhibition [4]: -7.35%

Q: Which inhibition [5] does the source give for `C[C@]1(O)C[C@@H](c2nc(-c3ccc4ccc(-c5ccccc5)nc4c3)c3c(N)nccn32)C1` here?
A: The inhibition was -9.99%.

Q: And the inhibition [6]?
A: The inhibition was -4.42%.

Q: What about the inhibition [7] of the same compound?
A: Its inhibition is 5.16%.

Q: What about the inhibition [8] of the same compound?
A: The inhibition was -1%.

Q: And the inhibition [9]?
A: Its inhibition is -9.75%.

Q: What about the inhibition [10] of the same compound?
A: The inhibition was 2.28%.
